The structures appear in SMILES notation. Bounds are passed on as bounds.

The target in the experiment is T1, ATM (Homo sapiens, UniProt Q13315).
T1 construct: detecting phosphorylation of Chk2 in a human non-small cell lung cancer cell line NCI-H460 (ATCC company); host or cells: NCI-H460 human non-small cell lung cancer cells
T1 sequence (Q13315 whole entry): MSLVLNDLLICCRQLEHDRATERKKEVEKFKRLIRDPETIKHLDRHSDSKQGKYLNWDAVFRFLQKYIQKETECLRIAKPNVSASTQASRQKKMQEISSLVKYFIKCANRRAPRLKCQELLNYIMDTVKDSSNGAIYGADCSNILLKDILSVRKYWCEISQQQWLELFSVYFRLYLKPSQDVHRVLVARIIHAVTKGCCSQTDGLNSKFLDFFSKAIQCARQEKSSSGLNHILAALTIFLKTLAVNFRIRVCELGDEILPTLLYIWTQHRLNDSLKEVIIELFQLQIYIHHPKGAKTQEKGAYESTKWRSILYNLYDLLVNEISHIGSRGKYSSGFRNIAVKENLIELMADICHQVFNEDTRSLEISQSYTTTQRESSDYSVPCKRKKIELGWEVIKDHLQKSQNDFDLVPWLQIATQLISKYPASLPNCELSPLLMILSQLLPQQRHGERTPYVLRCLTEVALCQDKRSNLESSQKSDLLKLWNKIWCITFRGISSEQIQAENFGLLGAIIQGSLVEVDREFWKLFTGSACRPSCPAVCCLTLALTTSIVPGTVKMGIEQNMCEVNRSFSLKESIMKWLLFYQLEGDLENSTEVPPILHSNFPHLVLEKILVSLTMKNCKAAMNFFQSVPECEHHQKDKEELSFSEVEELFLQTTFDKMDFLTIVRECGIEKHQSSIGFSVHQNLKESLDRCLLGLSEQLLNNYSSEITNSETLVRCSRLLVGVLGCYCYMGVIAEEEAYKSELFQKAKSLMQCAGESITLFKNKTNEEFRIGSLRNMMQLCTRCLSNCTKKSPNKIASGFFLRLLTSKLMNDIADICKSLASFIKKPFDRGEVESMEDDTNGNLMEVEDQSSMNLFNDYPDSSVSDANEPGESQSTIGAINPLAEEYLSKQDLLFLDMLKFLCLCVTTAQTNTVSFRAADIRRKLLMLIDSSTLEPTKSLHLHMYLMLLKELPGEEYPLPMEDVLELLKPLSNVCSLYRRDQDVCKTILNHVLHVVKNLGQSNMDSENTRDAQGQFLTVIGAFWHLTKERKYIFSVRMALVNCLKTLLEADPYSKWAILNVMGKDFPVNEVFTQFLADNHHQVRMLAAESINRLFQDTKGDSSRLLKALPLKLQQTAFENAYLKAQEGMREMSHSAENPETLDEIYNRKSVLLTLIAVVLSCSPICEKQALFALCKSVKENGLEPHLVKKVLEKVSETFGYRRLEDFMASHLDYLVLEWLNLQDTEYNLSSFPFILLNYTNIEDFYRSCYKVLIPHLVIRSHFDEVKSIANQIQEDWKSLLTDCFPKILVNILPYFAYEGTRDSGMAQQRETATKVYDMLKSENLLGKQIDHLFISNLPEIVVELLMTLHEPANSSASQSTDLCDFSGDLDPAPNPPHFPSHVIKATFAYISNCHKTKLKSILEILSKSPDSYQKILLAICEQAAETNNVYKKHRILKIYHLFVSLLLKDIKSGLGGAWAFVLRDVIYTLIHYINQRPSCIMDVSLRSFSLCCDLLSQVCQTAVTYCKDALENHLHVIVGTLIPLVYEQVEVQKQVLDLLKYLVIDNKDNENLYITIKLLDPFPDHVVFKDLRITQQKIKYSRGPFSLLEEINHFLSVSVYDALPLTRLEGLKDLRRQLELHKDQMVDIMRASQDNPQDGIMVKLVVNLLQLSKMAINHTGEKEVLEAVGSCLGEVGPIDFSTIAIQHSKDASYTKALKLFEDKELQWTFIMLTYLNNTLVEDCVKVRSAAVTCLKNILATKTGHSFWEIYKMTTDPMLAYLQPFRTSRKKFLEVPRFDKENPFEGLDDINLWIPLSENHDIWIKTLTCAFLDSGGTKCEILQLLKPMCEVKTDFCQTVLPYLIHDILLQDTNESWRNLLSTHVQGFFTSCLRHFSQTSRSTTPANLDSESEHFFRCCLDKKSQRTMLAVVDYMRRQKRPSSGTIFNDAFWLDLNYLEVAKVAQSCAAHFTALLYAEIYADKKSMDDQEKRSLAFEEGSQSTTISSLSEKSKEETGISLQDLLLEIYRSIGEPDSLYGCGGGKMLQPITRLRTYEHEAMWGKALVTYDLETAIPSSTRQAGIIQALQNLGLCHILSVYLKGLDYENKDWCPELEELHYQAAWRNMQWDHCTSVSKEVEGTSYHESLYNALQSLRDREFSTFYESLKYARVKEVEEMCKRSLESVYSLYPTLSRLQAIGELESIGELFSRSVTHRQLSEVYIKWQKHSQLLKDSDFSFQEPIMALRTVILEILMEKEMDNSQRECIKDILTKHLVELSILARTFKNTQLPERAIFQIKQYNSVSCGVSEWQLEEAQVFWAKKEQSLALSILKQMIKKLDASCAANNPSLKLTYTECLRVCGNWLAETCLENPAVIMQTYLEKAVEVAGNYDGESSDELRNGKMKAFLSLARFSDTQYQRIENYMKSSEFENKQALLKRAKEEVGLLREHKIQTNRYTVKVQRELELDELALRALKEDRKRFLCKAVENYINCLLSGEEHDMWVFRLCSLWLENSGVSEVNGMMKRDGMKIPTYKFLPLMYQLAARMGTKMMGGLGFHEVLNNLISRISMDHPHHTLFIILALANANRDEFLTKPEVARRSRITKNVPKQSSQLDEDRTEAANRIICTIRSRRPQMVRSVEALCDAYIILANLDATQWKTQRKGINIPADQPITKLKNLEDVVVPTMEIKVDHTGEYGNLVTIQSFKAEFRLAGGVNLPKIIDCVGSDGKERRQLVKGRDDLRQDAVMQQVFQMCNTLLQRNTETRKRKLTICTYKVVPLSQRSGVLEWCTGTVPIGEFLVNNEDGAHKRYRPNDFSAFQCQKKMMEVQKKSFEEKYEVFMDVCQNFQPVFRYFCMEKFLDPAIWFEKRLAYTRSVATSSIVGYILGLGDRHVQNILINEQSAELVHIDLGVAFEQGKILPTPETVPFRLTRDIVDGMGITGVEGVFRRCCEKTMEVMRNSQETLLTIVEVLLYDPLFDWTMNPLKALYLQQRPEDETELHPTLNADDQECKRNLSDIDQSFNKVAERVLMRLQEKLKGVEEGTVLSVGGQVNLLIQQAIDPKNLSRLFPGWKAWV
Briefly: ATM inhibition test (phosphorylation of Chk2 generated by ionizing radiation, AlphaScreen SureFire). It counts as cell-based. The conditions noted are these: phosphorylated Chk2 in NCI-H460 cells, ionizing radiation 8Gy, 1 hour after test compound treatment; read-out: ATM inhibitory activity. Put shortly: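 Human NCI-H460 lung cancer cells were treated with compound for 1 h, then irradiated at 8Gy and incubated 1 h at 37° C. Phospho-Chk2 was quantified by AlphaScreen SureFire; inhibition % was normalised between irradiated untreated and non-irradiated untreated wells.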
(In Alpha technology, singlet oxygen from a donor bead excites a nearby acceptor bead.)
With `O=c1cc(N2CCOCC2)cc(-c2cccc3c2Sc2ccc(NCc4ccc(Cl)nc4)cc2S3)[nH]1` [Example 1-44-2, 6-(7-(((6-Chloropyridin-3-yl)methyl)amino)thianthren-1-yl)-4-morpholino pyridin-2(1H)-one], the IC50 is < 100 nM.
`Nc1ccc2c(c1)Cc1cccc(-c3cc(N4CCOCC4)cc(=O)[nH]3)c1O2` [Example 2-1-1, 5-6-(7-amino-9H-xanthen-4-yl)-4-morpholinopyridin-2(1H)-one]: the IC50 lay in the range of 500 to 2000 nM.
With `Cc1ccc(C(CCCN(C)C)Nc2ccc3c(c2)Sc2cccc(-c4cc(N5CCOCC5)cc(=O)[nH]4)c2S3)nc1` (single isomer, unassigned) [Example 1-51-4, 6-(7-((4-(Dimethylamino)-1-(5-methylpyridin-2-yl)butyl)amino)thianthren-1-yl)-4-morpholino pyridin-2(1H)-one], the IC50 was in the range of 100 to 500 nM.
As to `CCOC(=O)C(C)Nc1ccc2c(c1)Cc1cccc(-c3cc(N4CCOCC4)cc(=O)[nH]3)c1O2` (centres unmarked) [Example 2-14-72, Ethyl 2-((5-(4-morpholino-6-oxo-1,6-dihydropyridin-2-yl)-9H-xanthen-2-yl)amino) propanoate], the IC50 lay in the range of 100 to 500 nM.
For `CC(Nc1ccc2c(c1)Cc1cccc(-c3cc(N4CCOCC4)cc(=O)[nH]3)c1O2)c1cnc(N(C)C)cn1` (centres unmarked) [Example 2-14-53, 6-(7-((1-(5-(Dimethylamino)pyrazin-2-yl)ethyl)amino)-9H-xanthen-4-yl)-4-morpholino pyridin-2(1H)-one] the value was 100 to 500 nM; for `O=c1cc(N2CCOCC2)cc(-c2cccc3c2Oc2ccc(NCC4CCN(c5ccncc5)CC4)cc2C3)[nH]1` [Example 2-21-5], 500 to 2000 nM; for `Cc1ccc(C(Nc2ccc3c(c2)Cc2cccc(-c4cc(N5CCOCC5)cc(=O)[nH]4)c2O3)[C@H]2CN(C)CCO2)nc1` (stereo partly drawn) [Example 2-67, 6-(7-((((R)-4-methylmorpholin-2-yl)(5-methylpyridin-2-yl)methyl)amino)-9H-xanthen-4-yl)-4-morpholinopyridin-2(1H)-one], < 100 nM.
With `O=c1cc(N2CCOCC2)cc(-c2cccc3c2Oc2ccc(NC4CCN(Cc5cccc(C6CC6)n5)CC4)cc2C3)[nH]1` [Example 2-28-31, 6-(7-((1-((6-Cyclopropylpyridin-2-yl)methyl)piperidin-4-yl)amino)-9H-xanthen-4-yl)-4-morpholino pyridin-2(1H)-one], the IC50 lay within 100 to 500 nM.
With `O=c1cc(N2CCOCC2)cc(-c2cccc3c2Oc2ccc(NC4CCN(Cc5ccoc5)CC4)cc2C3)[nH]1` [Example 2-28-28, 6-(7-((1-(Furan-3-ylmethyl)piperidin-4-yl)amino)-9H-xanthen-4-yl)-4-morpholino pyridin-2(1H)-one], the IC50 lay within 100 to 500 nM.
In the case of `Cc1ccnc(CN2CCC(Nc3ccc4c(c3)Cc3cccc(-c5cc(N6CCOCC6)cc(=O)[nH]5)c3O4)CC2)c1` [Example 2-28-19, 6-(7-((1-((4-Methylpyridin-2-yl)methyl)piperidin-4-yl)amino)-9H-xanthen-4-yl)-4-morpholino pyridin-2(1H)-one], the IC50 fell in the range of 100 to 500 nM.
As to `O=C(OCc1ccccc1)N1C[C@@H](N2CCOCC2)[C@H](Nc2ccc3c(c2)Sc2cccc(-c4cc(N5CCOCC5)cc(=O)[nH]4)c2S3)C1` (racemic) [Example 11-1, Benzyl 3-morpholino-4-((6-(4-morpholino-6-oxo-1,6-dihydropyridin-2-yl)thianthren-2-yl)amino)pyrrolidine-1-carboxylate], the IC50 was 100 to 500 nM.
In the case of `Cn1cc(-c2cncc(CNc3ccc4c(c3)Cc3cccc(-c5cc(N6CCOCC6)cc(=O)[nH]5)c3O4)c2)cn1` [Example 2-2-49, 6-(7-(((5-(1-Methyl-1H-pyrazol-4-yl)pyridin-3-yl)methyl)amino)-9H-xanthen-4-yl)-4-morpholino pyridin-2(1H)-one], the IC50 fell in the range of 100 to 500 nM.
Consider `Cc1ccc(CNc2ccc3c(c2)Cc2ccnc(-c4cc(N5CCOCC5)cc(=O)[nH]4)c2O3)cn1` [Example 2-42-4, 6-(7-(((6-Methylpyridin-3-yl)methyl)amino)-5H-chromeno[2,3-c]pyridin-1-yl)-4-morpholinopyridin-2(1H)-one], for which the IC50 was 100 to 500 nM.
On to `Cc1ccnc(C(C)Nc2ccc3c(c2)Cc2ccnc(-c4cc(N5CCOCC5)cc(=O)[nH]4)c2O3)c1` (centres unmarked) [Example 2-42-5, 6-(7-((1-(4-Methylpyridin-2-yl)ethyl)amino)-5H-chromeno[2,3-c]pyridin-1-yl)-4-morpholinopyridin-2(1H)-one], for which the IC50 lay within 100 to 500 nM.
`CC(C)(C)OC(=O)N1CCC[C@H]1C(=O)Nc1ccc2c(c1)Cc1cccc(-c3cc(N4CCOCC4)cc(=O)[nH]3)c1O2` [Example 2-20-2, (S)-tert-butyl 2-((5-(4-morpholino-6-oxo-1,6-dihydropyridin-2-yl)-9H-xanthen-2-yl)carbamoyl)pyrrolidine-1-carboxylate]: the IC50 lay in the range of 500 to 2000 nM.
For `CCCC(Nc1ccc2c(c1)Sc1cccc(-c3cc(N4CCOCC4)cc(=O)[nH]3)c1O2)c1cncc(OC)c1` (centres unmarked) [Example 4-4-26, 6-(8-((1-(5-Methoxypyridin-3-yl)butyl)amino)phenoxathiin-4-yl)-4-morpholino pyridin-2(1H)-one] the value was 100 to 500 nM; for `CC(Nc1ccc2c(c1)Cc1cccc(-c3cc(N4CCOCC4)cc(=O)[nH]3)c1O2)c1ncccn1` (centres unmarked) [Example 2-14-78, 4-Morpholino-6-(7-((1-(pyrimidin-2-yl)ethyl)amino)-9H-xanthen-4-yl) pyridin-2(1H)-one], 100 to 500 nM; for `Cc1ccc(C(Nc2ccc3c(c2)Sc2cccc(-c4cc(N5CCOCC5)cc(=O)[nH]4)c2S3)[C@@H]2CCCN2C)nc1` (single isomer, unassigned) [Example 1-56-2], 100 to 500 nM.
Turning to `O=c1cc(N2CCOCC2)cc(-c2cccc3c2Sc2ccc(NCc4ccnc(N5CCOCC5)n4)cc2S3)[nH]1` [Example 1-12-41, 4-Morpholino-6-(7-(((2-morpholinopyrimidin-4-yl)methyl)amino)thianthren-1-yl)pyridin-2(1H)-one], the IC50 lay in the range of 100 to 500 nM.
Take `CN1CCC(Nc2ccc3c(c2)Sc2cccc(-c4cc(N5CCOCC5)cc(=O)[nH]4)c2O3)CC1` [Example 4-8-2, 6-(8-((1-Methylpiperidin-4-yl)amino)phenoxathiin-4-yl)-4-morpholino pyridin-2(1H)-one]: the IC50 was 100 to 500 nM.
Consider `O=c1cc(N2CCOCC2)cc(-c2cccc3c2Oc2ccc(NC4CCN(CCC5CCCCC5)CC4)cc2C3)[nH]1` [Example 2-30-5, 6-(7-((1-(2-Cyclohexylethyl)piperidin-4-yl)amino)-9H-xanthen-4-yl)-4-morpholino pyridin-2 (1H)-one], for which the IC50 was 500 to 2000 nM.
Consider `COCCN(C)CCC(Nc1ccc2c(c1)Sc1cccc(-c3cc(N4CCOCC4)cc(=O)[nH]3)c1S2)c1ccc(C)cn1` (single isomer, unassigned) [Example 10-3-3, 6-(7-((3-((2-Methoxyethyl) (methyl)amino)-1-(5-methylpyridin-2-yl)propyl)amino)thiarnthren-l-yl)-4-morpholino pyridin-2(1H)-one], for which the IC50 is < 100 nM.
On to `COc1cc(CNc2ccc3c(c2)Cc2ccnc(-c4cc(N5CCOCC5)cc(=O)[nH]4)c2O3)cnc1OC` [Example 2-41-10, 6-(7-(((5,6-Dimethoxypyridin-3-yl)methyl)amino)-5H-chromeno[2,3-c]pyridin-1-yl)-4-morpholino pyridin-2(1H)-one], for which the IC50 fell in the range of 100 to 500 nM.
